Key:
Assay in all cases: HLA class I binding assay, purified HLA, inhibition of 125I-labelled probe peptide
HLA-A*0201 = HLA-A*0201 (Homo sapiens, UniProt P04439, D140Y/D185E/D98H/E176V/E277Q/G131W/G231S/I119V/I121R/I166T/I218V/L300P/L318F/N151K/N90K/P208A/P217A/Q86G/Q94H/R138H/R169H/T345S); conditions: A*[…], A2 supermotif cross-reactive binding data
HLA-A*0202 = HLA-A*0202 (Homo sapiens, UniProt P04439, D140Y/D185E/D98H/E176V/E277Q/G131W/G231S/I119L/I121R/I166T/I218V/L180W/L300P/L318F/N151K/N90K/P208A/P217A/Q67R/Q86G/Q94H/R138H/R169H/T345S); conditions: A2 supermotif cross-reactive binding data
HLA-A*0203 = HLA-A*0203 (Homo sapiens, UniProt P04439, A173T/D140Y/D185E/D98H/E277Q/G131W/G231S/I119V/I121R/I166T/I218V/L180W/L300P/L318F/N151K/N90K/P208A/P217A/Q86G/Q94H/R138H/R169H/T345S); conditions: A*[…], A2 supermotif cross-reactive binding data
HLA-A*0206 = HLA-A*0206 (Homo sapiens, UniProt P04439, D140Y/D185E/D98H/E176V/E277Q/F33Y/G131W/G231S/I119V/I121R/I166T/I218V/L300P/L318F/N151K/N90K/P208A/P217A/Q86G/Q94H/R138H/R169H/T345S); conditions: A*[…], A2 supermotif cross-reactive binding data
HLA-A*6802 = HLA-A*6802 (Homo sapiens, UniProt P04439, A269V/D140Y/D185E/E176V/E277Q/E87N/F33Y/G231S/I121R/I166T/I218V/L180W/L300P/L318F/N151K/P208A/P217A/Q86R/R138H/R169H/S129P/T345S/V36M); conditions: A2 supermotif cross-reactive binding data; read-out: A*6802 nM

| IC50 (HLA-A*0201) [nM] | IC50 (HLA-A*0202) [nM] | IC50 (HLA-A*0203) [nM] | IC50 (HLA-A*0206) [nM] | IC50 (HLA-A*6802) [nM] | Molecule |
| --- | --- | --- | --- | --- | --- |
| 26 | 4.9 | 40 | 712 | 229 | CC[C@H](C)[C@H](NC(=O)[C@H](Cc1c[nH]c2ccccc12)NC(=O)[C@@H](NC(=O)[C@@H](NC(=O)[C@H](CO)NC(=O)[C@H](CC(C)C)NC(=O)[C@@H](N)[C@@H](C)O)C(C)C)[C@@H](C)O)C(=O)NCC(=O)N[C@H](C(=O)O)C(C)C [Peptide 60.0217] |
| – | 1.4 | 5.6 | 381 | 6150 | CC(C)C[C@H](NC(=O)[C@@H](N)Cc1ccccc1)C(=O)N[C@@H](CC(N)=O)C(=O)N[C@@H](CCC(=O)O)C(=O)N[C@@H](CO)C(=O)N[C@@H](Cc1ccc(O)cc1)C(=O)N[C@@H](CCCCN)C(=O)N[C@@H](Cc1c[nH]cn1)C(=O)N[C@@H](CCC(=O)O)C(=O)N[C@@H](CCC(N)=O)C(=O)N[C@H](C(=O)O)C(C)C [Peptide 1419.55] |
| 98 | 36 | 91 | > 10000 | 30 | CC[C@H](C)[C@H](NC(=O)[C@H](Cc1ccccc1)NC(=O)[C@H](C)NC(=O)[C@H](CCCNC(=N)N)NC(=O)[C@H](CCC(=O)O)NC(=O)[C@H](CC(C)C)NC(=O)[C@H](Cc1ccccc1)NC(=O)[C@H](CCSC)NC(=O)[C@H](CC(C)C)NC(=O)[C@@H](N)CCC(N)=O)C(=O)O [Peptide 1126.16] |
| 24 | 17 | 9.1 | 264 | > 10000 | CC(C)C[C@H](NC(=O)[C@H](C)N)C(=O)N[C@@H](CO)C(=O)N[C@H](C(=O)NCC(=O)N[C@@H](CS)C(=O)N[C@H](C(=O)NCC(=O)N[C@H](C(=O)O)C(C)C)[C@@H](C)O)C(C)C [Peptide 1418.15] |
| 13 | 6.3 | 2.8 | 5.2 | 205 | CC(C)C[C@H](NC(=O)[C@H](CO)NC(=O)[C@@H](NC(=O)[C@H](CS)NC(=O)[C@H](CCC(N)=O)NC(=O)[C@H](CC(C)C)NC(=O)[C@@H](N)CO)C(C)C)C(=O)N[C@@H](Cc1c[nH]cn1)C(=O)N[C@@H](CC(C)C)C(=O)N[C@H](C(=O)O)C(C)C [Peptide 1418.52] |
| 238 | 47 | 19 | 336 | – | CC[C@H](C)[C@H](NC(=O)[C@@H]1CCCN1C(=O)[C@H](CCC(N)=O)NC(=O)[C@H](Cc1c[nH]c2ccccc12)NC(=O)[C@H](CC(C)C)NC(=O)[C@H](CC(C)C)NC(=O)[C@H](CC(C)C)NC(=O)[C@@H]1CCCN1)C(=O)N1CCC[C@H]1C(=O)N[C@H](C(=O)O)C(C)C [Peptide 63.0042] |
| 53 | 27 | 31 | 34 | 6670 | CSCC[C@H](NC(=O)[C@H](Cc1ccccc1)NC(=O)[C@H](CCC(=O)O)NC(=O)[C@@H](NC(=O)[C@@H](NC(=O)[C@@H](N)CCCCN)C(C)C)[C@@H](C)O)C(=O)N[C@@H](CC(C)C)C(=O)N[C@@H](CS)C(=O)N[C@H](C(=O)O)C(C)C [Peptide 1418.21] |
| 42 | 2 | – | 112 | 964 | CC(C)C[C@H](NC(=O)[C@H](CC(=O)O)NC(=O)CNC(=O)[C@H](CCC(=O)O)NC(=O)[C@@H]1CCCN1C(=O)[C@H](CC(C)C)NC(=O)CN)C(=O)N[C@H](C(=O)N[C@@H](Cc1ccc(O)cc1)C(=O)N[C@H](C(=O)O)C(C)C)C(C)C [Peptide 1389.22] |
| 89 | 88 | 71 | 336 | > 10000 | CC(C)C[C@H](NC(=O)[C@H](Cc1ccccc1)NC(=O)[C@@H](NC(=O)[C@@H](N)C(C)C)C(C)C)C(=O)N[C@H](C(=O)N[C@@H](CC(C)C)C(=O)N[C@@H](CO)C(=O)N[C@H](C(=O)N[C@H](C(=O)N[C@@H](Cc1c[nH]c2ccccc12)C(=O)N[C@H](C(=O)O)C(C)C)[C@@H](C)O)C(C)C)[C@@H](C)O [Peptide 63.0185] |
| 8.6 | 0.8 | 10 | 2310 | 2160 | H-SLHLLSNDMCV-OH [Peptide 1418.66] |
| 250 | 94 | – | 451 | 2290 | CC[C@H](C)[C@H](NC(=O)[C@H](CO)NC(=O)[C@@H](NC(=O)CN)C(C)C)C(=O)N[C@@H](Cc1c[nH]c2ccccc12)C(=O)N[C@@H](CC(N)=O)C(=O)N1CCC[C@H]1C(=O)N[C@H](C(=O)N[C@@H](CC(C)C)C(=O)N[C@H](C(=O)O)C(C)C)[C@@H](C)CC [Peptide 63.0041] |
| 26 | 1.3 | 5.3 | 37 | 860 | CSCC[C@H](NC(=O)[C@H](CC(=O)O)NC(=O)[C@H](CC(N)=O)NC(=O)[C@H](CO)NC(=O)[C@H](CC(C)C)NC(=O)[C@H](CC(C)C)NC(=O)[C@@H](N)Cc1c[nH]cn1)C(=O)N[C@@H](CS)C(=O)N[C@@H](C)C(=O)N[C@@H](CCCNC(=N)N)C(=O)N[C@H](C(=O)O)C(C)C [Peptide 1418.67] |
| 119 | 102 | 278 | 176 | > 10000 | CSCC[C@H](NC(=O)[C@H](CC(=O)O)NC(=O)[C@H](CC(N)=O)NC(=O)[C@H](CO)NC(=O)[C@H](CC(C)C)NC(=O)[C@H](CC(C)C)NC(=O)[C@@H](N)Cc1c[nH]cn1)C(=O)N[C@@H](CS)C(=O)N[C@H](C(=O)O)C(C)C [Peptide 1418.20] |
| – | 159 | 63 | 2850 | > 10000 | CC[C@H](C)[C@H](NC(=O)[C@H](Cc1c[nH]c2ccccc12)NC(=O)[C@@H](NC(=O)[C@@H](NC(=O)[C@H](CO)NC(=O)[C@H](CC(C)C)NC(=O)[C@@H](NC(=O)[C@H](CC(C)C)NC(=O)[C@H](Cc1ccccc1)NC(=O)[C@@H](NC(=O)[C@@H](N)C(C)C)C(C)C)[C@@H](C)O)C(C)C)[C@@H](C)O)C(=O)O [Peptide 1419.25] |
| 455 | 269 | 909 | – | > 10000 | CC[C@H](C)[C@H](NC(=O)[C@H](CO)NC(=O)[C@@H](NC(=O)CN)C(C)C)C(=O)N[C@@H](Cc1c[nH]c2ccccc12)C(=O)N[C@@H](CC(N)=O)C(=O)N1CCC[C@H]1C(=O)N[C@H](C(=O)N[C@H](C(=O)O)C(C)C)[C@@H](C)CC [Peptide 60.0207] |
| 109 | 10 | 21 | 378 | – | CC(C)C[C@H](NC(=O)[C@H](CO)NC(=O)[C@H](C)NC(=O)[C@H](C)NC(=O)[C@H](CCCNC(=N)N)NC(=O)[C@H](C)NC(=O)[C@H](CC(C)C)NC(=O)[C@@H](N)CC(C)C)C(=O)N[C@@H](CO)C(=O)N[C@H](C(=O)O)C(C)C [Peptide 63.0031] |
| 500 | 5.2 | 63 | 9250 | – | CC(C)C[C@H](NC(=O)[C@H](CO)NC(=O)[C@H](CC(C)C)NC(=O)[C@H](CO)NC(=O)[C@H](C)NC(=O)[C@H](C)NC(=O)[C@H](CCCNC(=N)N)NC(=O)[C@H](C)NC(=O)[C@H](CC(C)C)NC(=O)[C@@H](N)CC(C)C)C(=O)O [Peptide 20.0203] |
| 53 | 8.4 | 8.3 | – | > 10000 | CC(C)C[C@H](NC(=O)[C@@H](NC(=O)[C@H](CC(C)C)NC(=O)[C@@H](N)Cc1ccccc1)[C@@H](C)O)C(=O)N[C@@H](CO)C(=O)N[C@H](C(=O)N[C@H](C(=O)N[C@@H](Cc1c[nH]c2ccccc12)C(=O)N[C@H](C(=O)O)C(C)C)[C@@H](C)O)C(C)C [Peptide 60.0216] |
| 14 | 17 | 2.8 | – | 364 | CC(C)C[C@H](NC(=O)[C@H](Cc1c[nH]c2ccccc12)NC(=O)[C@H](Cc1ccccc1)NC(=O)[C@H](Cc1ccccc1)NC(=O)[C@H](CC(C)C)NC(=O)[C@H](CC(C)C)NC(=O)[C@@H](N)Cc1ccccc1)C(=O)N[C@@H](CC(=O)O)C(=O)N[C@@H](CCCNC(=N)N)C(=O)N[C@@H](CO)C(=O)N[C@H](C(=O)O)C(C)C [Peptide 63.0138] |
| 5.3 | 0.7 | – | 10 | 1700 | H-LLSNDMCARV-OH [Peptide 1418.53] |
| 500 | 51 | 417 | – | 2580 | CC(C)C[C@H](NC(=O)[C@H](Cc1c[nH]cn1)NC(=O)[C@H](CC(C)C)NC(=O)[C@H](CO)NC(=O)[C@@H](NC(=O)[C@H](CS)NC(=O)[C@H](CCC(N)=O)NC(=O)[C@H](CC(C)C)NC(=O)[C@@H](N)CO)C(C)C)C(=O)O [Peptide 60.0191] |
| 8.1 | 3.1 | 5.3 | 80 | – | CC(C)C[C@H](NC(=O)[C@H](CO)NC(=O)[C@H](CC(C)C)NC(=O)[C@H](CO)NC(=O)[C@H](C)NC(=O)[C@H](C)NC(=O)[C@H](CCCNC(=N)N)NC(=O)[C@H](C)NC(=O)[C@H](CC(C)C)NC(=O)[C@H](CC(C)C)NC(=O)[C@@H](N)CC(C)C)C(=O)O [Peptide 63.0136] |
